Data as given in PubChem BioAssay AID1259407 (Chemical Carcinogenesis Research Information System (CCRIS), 2018).
The source made the active and inactive calls. No rule for the calls is given here.

System: CCRIS mutagenicity, Ames/micronucleus/aberration tests
Test: CCRIS mutagenicity studies

SMILES: CN(C)c1ccccc1
- mutagenic call (End Point: IN VITRO CHROMOSOMAL ABERRATIONS, Test System: CHO CELLS, Metabolic Activation: NONE): active; positive; at highest dose
- mutagenic call (End Point: IN VITRO CHROMOSOMAL ABERRATIONS, Test System: CHO CELLS, Metabolic Activation: RAT, LIVER, S-9, AROCLOR 1254): active; positive
- mutagenic call (End Point: In vitro chromosomal aberrations, Test System: Chinese hamster lung (CHL/IU) cells, Metabolic Activation: Rat, Liver, S9, Phenobarbital and 5,6-benzoflavone): active; positive (structural changes and ploidy)
- mutagenic call (Test System: AMES SALMONELLA TYPHIMURIUM, Strain/Indicator: TA97, Metabolic Activation: HAMSTER, LIVER, S-9, AROCLOR 1254 (10 OR 30%), Method: PREINCUBATION): inactive; negative
- mutagenic call (Test System: AMES SALMONELLA TYPHIMURIUM, Strain/Indicator: TA97, Metabolic Activation: NONE, Method: PREINCUBATION): inactive; negative
- mutagenic call (Test System: AMES SALMONELLA TYPHIMURIUM, Strain/Indicator: TA97, Metabolic Activation: RAT, LIVER, S-9, AROCLOR 1254 (10 OR 30%), Method: PREINCUBATION): inactive; negative
- mutagenic call (Test System: AMES SALMONELLA TYPHIMURIUM, Strain/Indicator: TA98, Metabolic Activation: HAMSTER, LIVER, S-9, AROCLOR 1254 (10 OR 30%), Method: PREINCUBATION): inactive; negative
- mutagenic call (Test System: AMES SALMONELLA TYPHIMURIUM, Strain/Indicator: TA98, Metabolic Activation: HAMSTER, LIVER, S-9, AROCLOR 1254, Method: PREINCUBATION): inactive; negative
- mutagenic call (Test System: AMES SALMONELLA TYPHIMURIUM, Strain/Indicator: TA98, Metabolic Activation: HAMSTER, LIVER, S-9, PHENOBARBITAL AND BETA-NAPHTHOFLAVONE, Method: PREINCUBATION): inactive; negative
- mutagenic call (Test System: AMES SALMONELLA TYPHIMURIUM, Strain/Indicator: TA98, Metabolic Activation: RAT, LIVER, S-9, AROCLOR 1254 (10 OR 30%), Method: PREINCUBATION): inactive; negative
- mutagenic call (Test System: AMES SALMONELLA TYPHIMURIUM, Strain/Indicator: TA98, Metabolic Activation: RAT, LIVER, S-9, AROCLOR 1254, Method: PREINCUBATION): inactive; negative
- mutagenic call (Test System: AMES SALMONELLA TYPHIMURIUM, Strain/Indicator: TA100, Metabolic Activation: HAMSTER, LIVER, S-9, AROCLOR 1254 (10 OR 30%), Method: PREINCUBATION): inactive; negative
- mutagenic call (Test System: AMES SALMONELLA TYPHIMURIUM, Strain/Indicator: TA100, Metabolic Activation: HAMSTER, LIVER, S-9, AROCLOR 1254, Method: PREINCUBATION): inactive; negative
- mutagenic call (Test System: AMES SALMONELLA TYPHIMURIUM, Strain/Indicator: TA100, Metabolic Activation: HAMSTER, LIVER, S-9, PHENOBARBITAL AND BETA-NAPHTHOFLAVONE, Method: PREINCUBATION): inactive; negative
- mutagenic call (Test System: AMES SALMONELLA TYPHIMURIUM, Strain/Indicator: TA100, Metabolic Activation: RAT, LIVER, S-9, AROCLOR 1254 (10 OR 30%), Method: PREINCUBATION): inactive; negative
- mutagenic call (Test System: AMES SALMONELLA TYPHIMURIUM, Strain/Indicator: TA100, Metabolic Activation: RAT, LIVER, S-9, AROCLOR 1254, Method: PREINCUBATION): inactive; negative
- mutagenic call (Test System: AMES SALMONELLA TYPHIMURIUM, Strain/Indicator: TA102, Metabolic Activation: HAMSTER, LIVER, S-9, PHENOBARBITAL AND BETA-NAPHTHOFLAVONE, Method: PREINCUBATION): inactive; negative
- mutagenic call (Test System: AMES SALMONELLA TYPHIMURIUM, Strain/Indicator: TA102, Metabolic Activation: HAMSTER, LIVER, S-9, SODIUM PHENOBARBITAL AND 5,6-BENZOFLAVONE, Method: PREINCUBATION): inactive; negative
- mutagenic call (Test System: AMES SALMONELLA TYPHIMURIUM, Strain/Indicator: TA102, Metabolic Activation: NONE, Method: PREINCUBATION): inactive; negative
- mutagenic call (Test System: AMES SALMONELLA TYPHIMURIUM, Strain/Indicator: TA104, Metabolic Activation: HAMSTER, LIVER, S-9, PHENOBARBITAL AND BETA-NAPHTHOFLAVONE, Method: PREINCUBATION): inactive; negative
- mutagenic call (Test System: AMES SALMONELLA TYPHIMURIUM, Strain/Indicator: TA104, Metabolic Activation: HAMSTER, LIVER, S-9, SODIUM PHENOBARBITAL AND 5,6-BENZOFLAVONE, Method: PREINCUBATION): inactive; negative
- mutagenic call (Test System: AMES SALMONELLA TYPHIMURIUM, Strain/Indicator: TA104, Metabolic Activation: NONE, Method: PREINCUBATION): inactive; negative
- mutagenic call (Test System: AMES SALMONELLA TYPHIMURIUM, Strain/Indicator: TA1535, Metabolic Activation: HAMSTER, LIVER, S-9, AROCLOR 1254, Method: PREINCUBATION): inactive; negative
- mutagenic call (Test System: AMES SALMONELLA TYPHIMURIUM, Strain/Indicator: TA1535, Metabolic Activation: HAMSTER, LIVER, S-9, PHENOBARBITAL AND BETA-NAPHTHOFLAVONE, Method: PREINCUBATION): inactive; negative
- mutagenic call (Test System: AMES SALMONELLA TYPHIMURIUM, Strain/Indicator: TA1535, Metabolic Activation: NONE, Method: PREINCUBATION): inactive; negative
- mutagenic call (Test System: AMES SALMONELLA TYPHIMURIUM, Strain/Indicator: TA1535, Metabolic Activation: RAT, LIVER, S-9, AROCLOR 1254, Method: PREINCUBATION): inactive; negative
- mutagenic call (Test System: AMES SALMONELLA TYPHIMURIUM, Strain/Indicator: TA1537, Metabolic Activation: HAMSTER, LIVER, S-9, AROCLOR 1254, Method: PREINCUBATION): inactive; negative
- mutagenic call (Test System: AMES SALMONELLA TYPHIMURIUM, Strain/Indicator: TA1537, Metabolic Activation: HAMSTER, LIVER, S-9, PHENOBARBITAL AND BETA-NAPHTHOFLAVONE, Method: PREINCUBATION): inactive; negative
- mutagenic call (Test System: AMES SALMONELLA TYPHIMURIUM, Strain/Indicator: TA1537, Metabolic Activation: NONE, Method: PREINCUBATION): inactive; negative
- mutagenic call (Test System: AMES SALMONELLA TYPHIMURIUM, Strain/Indicator: TA1537, Metabolic Activation: RAT, LIVER, S-9, AROCLOR 1254, Method: PREINCUBATION): inactive; negative
- mutagenic call (Test System: E. COLI, Strain/Indicator: WP2UVRA/PKM101, Metabolic Activation: HAMSTER, LIVER, S-9, PHENOBARBITAL AND BETA-NAPHTHOFLAVONE, Method: PREINCUBATION): inactive; negative
- mutagenic call (Test System: E. COLI, Strain/Indicator: WP2UVRA/PKM101, Metabolic Activation: NONE, Method: PREINCUBATION): inactive; negative
- mutagenic call (Test System: E. COLI, Strain/Indicator: WP2UVRA, Metabolic Activation: HAMSTER, LIVER, S-9, PHENOBARBITAL AND BETA-NAPHTHOFLAVONE, Method: PREINCUBATION): inactive; negative
- mutagenic call (Test System: E. COLI, Strain/Indicator: WP2UVRA, Metabolic Activation: NONE, Method: PREINCUBATION): inactive; negative
- mutagenic call (Test System: MOUSE LYMPHOMA TYPHIMURIUM, Strain/Indicator: L5178Y (TK+/TK-), Metabolic Activation: RAT, LIVER, S-9, AROCLOR 1254, Method: SUSPENSION/PLATE): active; positive
- mutagenic call (Test System: MOUSE LYMPHOMA, Strain/Indicator: L5178Y (TK+/TK-), Metabolic Activation: NONE, Method: SUSPENSION/PLATE): active; positive
- mutagenic call (Test System: UDS RODENT HEPATOCYTES, Strain/Indicator: THY INCORP (NON-S-PHASE), Metabolic Activation: NONE, Method: AUTORADIOGRAPHY): inactive; negative

SMILES: COc1ccc(CCl)cc1
- mutagenic call (Test System: AMES SALMONELLA TYPHIMURIUM, Strain/Indicator: TA100, Metabolic Activation: NONE, Method: STANDARD PLATE): inactive; negative
